Experimental data taken from DBAASP.
Converted amounts (≈) assume the structure as drawn.

Columns and labels:
Assay in all cases: ≥ marks a high value that may be exact or a test limit, other limits are often not marked, values filed in µg/mL are converted to µM
[1] = system: Escherichia coli BL21AI
[2] = system: Micrococcus luteus ATCC 10240
[3] = system: Alternaria alternata
[4] = system: Botrytis cinerea
[5] = system: Cladosporium herbarum
[6] = system: Clavibacter michiganensis subsp. michiganensis DSM 46294
[7] = system: Pectobacterium carotovorum subsp. carotovorum DSM 30168
[8] = system: Pseudomonas corrugata DSM 7228
[9] = system: Pseudomonas syringae pv. syringae DSM 10604
[10] = system: Pseudomonas syringae pv. tomato DC3000
[11] = system: Staphylococcus aureus 90857
[12] = system: Xanthomonas vesicatoria DSM 50861
[13] = system: Bacillus subtilis KCTC 1021
[14] = system: Bacillus subtilis KCTC 1022
[15] = system: Bacillus subtilis KCTC 3068
[16] = system: Escherichia coli KCTC 1682
[17] = system: Escherichia coli KCTC 2571
[18] = system: Escherichia coli KCTC 2593
[19] = system: Pseudomonas aeruginosa KCTC 1637
[20] = system: Pseudomonas aeruginosa KCTC 2004
[21] = system: Pseudomonas aeruginosa KCTC 2513
[22] = system: Salmonella typhimurium KCTC 1926
[23] = system: Staphylococcus aureus KCTC 1621
[24] = system: Staphylococcus aureus KCTC 1916
[25] = system: Staphylococcus aureus KCTC 3881
[26] = system: Staphylococcus epidermidis KCTC 1917
[27] = system: Neisseria gonorrhoeae F62
[28] = system: Neisseria gonorrhoeae FA19
[29] = system: Candida glabrata 090902
[30] = system: Enterococcus faecalis 981
[31] = system: Nocardia asteroides 201118
[32] = system: Psychrobacter faecalis X29
[33] = system: Staphylococcus aureus ATCC 25923

CC[C@H](C)[C@H](NC(=O)[C@H](Cc1ccc(O)cc1)NC(=O)[C@@H](NC(=O)[C@@H]1CCCN1C(=O)[C@H](CCCN=C(N)N)NC(=O)[C@H](CC(N)=O)NC(=O)[C@H](CC(N)=O)NC(=O)CN)C(C)C)C(=O)N1CCC[C@H]1C(=O)N[C@@H](CCCN=C(N)N)C(=O)N1CCC[C@H]1C(=O)N[C@@H](CCCN=C(N)N)C(=O)N1CCC[C@H]1C(=O)N1CCC[C@H]1C(=O)N[C@@H](Cc1cnc[nH]1)C(=O)N1CCC[C@H]1C(=O)N[C@@H](CCCN=C(N)N)C(=O)N[C@@H](CC(C)C)C(=O)N[C@H](C(=O)O)C(C)C [GNNRPVYIPRPRPPHPRLV]
MIC [1]: 3.49 µM (≈ 7.81 µg/mL) | MIC [2]: 0.107 µM (≈ 0.24 µg/mL)

CC(C)C[C@H](NC(=O)[C@H](CCCCN)NC(=O)[C@H](CC(C)C)NC(=O)[C@H](CCCN=C(N)N)NC(=O)[C@H](CCCCN)NC(=O)[C@H](CCCCN)NC(=O)[C@@H](N)CCCN=C(N)N)C(=O)N[C@@H](CC(C)C)C(=O)N[C@@H](CCCCN)C(=O)N[C@@H](CCCN=C(N)N)C(=O)N[C@@H](CC(C)C)C(=O)N[C@H](C(N)=O)C(C)C [RKKRLKLLKRLV]
MIC [3]: ≥ 64.5 µM | MIC [4]: ≥ 64.5 µM | MIC [5]: 6.45 µM (≈ 9.99 µg/mL) | MIC [6]: 0.645 µM (≈ 0.999 µg/mL) | MIC [7]: 25.8 µM (≈ 40 µg/mL) | MIC [8]: 1.29 µM (≈ 2 µg/mL) | MIC [9]: 1.29 µM (≈ 2 µg/mL) | MIC [10]: 0.645 µM (≈ 0.999 µg/mL) | MIC [11]: 25 µM (≈ 38.8 µg/mL) | MIC [12]: 1.29 µM (≈ 2 µg/mL)

CC[C@H](C)[C@H](NC(=O)CNC(=O)[C@H](CCCN=C(N)N)NC(=O)[C@H](Cc1c[nH]c2ccccc12)NC(=O)[C@@H](NC(=O)[C@H](Cc1cnc[nH]1)NC(=O)[C@H](Cc1cnc[nH]1)NC(=O)[C@H](Cc1ccccc1)NC(=O)[C@@H](N)Cc1ccccc1)[C@@H](C)CC)C(=O)N[C@H](C(=O)N[C@@H](Cc1cnc[nH]1)C(=O)N[C@H](C(=O)NCC(=O)N[C@@H](CCCCN)C(=O)N[C@H](C(=O)N[C@H](C(=O)N[C@@H](Cc1cnc[nH]1)C(=O)N[C@@H](CCCN=C(N)N)C(=O)N[C@@H](CC(C)C)C(=O)N[C@H](C(=O)N[C@H](C(=O)NCC(=O)O)[C@@H](C)O)C(C)C)[C@@H](C)CC)[C@@H](C)O)C(C)C)C(C)C [FFHHIWRGIVHVGKTIHRLVTG]
MIC [13]: 4 µM (≈ 10.4 µg/mL) | MIC [14]: 4 µM (≈ 10.4 µg/mL) | MIC [15]: 4 µM (≈ 10.4 µg/mL) | MIC [16]: 2 µM (≈ 5.22 µg/mL) | MIC [17]: 2 µM (≈ 5.22 µg/mL) | MIC [18]: 2 µM (≈ 5.22 µg/mL) | MIC [19]: 4 µM (≈ 10.4 µg/mL) | MIC [20]: 4 µM (≈ 10.4 µg/mL) | MIC [21]: 4 µM (≈ 10.4 µg/mL) | MIC [22]: 4 µM (≈ 10.4 µg/mL) | MIC [23]: 2 µM (≈ 5.22 µg/mL) | MIC [24]: 2 µM (≈ 5.22 µg/mL) | MIC [25]: 2 µM (≈ 5.22 µg/mL) | MIC [26]: 2 µM (≈ 5.22 µg/mL)

CC(C)C[C@H](NC(=O)[C@H](CCCNC(=N)N)NC(=O)CNC(=O)CNC(=O)[C@@H](N)CCCNC(=N)N)C(=O)N[C@@H](C)C(=O)N[C@@H](Cc1ccc(O)cc1)C(=O)N[C@@H](C)C(=O)N[C@@H](CCCNC(=N)N)C(=O)N[C@@H](CCCNC(=N)N)C(=O)N[C@@H](CCCNC(=N)N)C(=O)N[C@@H](Cc1ccccc1)C(=O)N[C@@H](C)C(=O)N[C@H](C(=O)N[C@@H](C)C(=O)N[C@H](C(=O)NCC(=O)N[C@@H](CCCNC(=N)N)C(N)=O)C(C)C)C(C)C [RGGRLAYARRRFAVAVGR]
MIC [27]: 10 µM (≈ 20.3 µg/mL) | MIC [28]: ≥ 224 µM

CC[C@H](C)[C@H](NC(=O)[C@H](CC(C)C)NC(=O)CNC(=O)[C@@H]1CCCN1C(=O)[C@H](CC(C)C)NC(=O)[C@@H](N)Cc1ccccc1)C(=O)N[C@@H](CCCCN)C(=O)N[C@H](C(=O)N[C@@H](C)C(=O)N[C@H](C(=O)NCC(=O)N[C@H](C(=O)NCC(=O)N[C@@H](CO)C(=O)N[C@H](C(=O)N[C@H](C(=O)N[C@@H](CC(C)C)C(=O)N[C@H]1CSSC[C@@H](C(=O)O)NC(=O)[C@H](CCCCN)NC(=O)[C@H](CCCCN)NC(=O)[C@H]([C@@H](C)O)NC(=O)[C@H]([C@@H](C)CC)NC(=O)[C@H](CCCCN)NC1=O)[C@@H](C)CC)[C@@H](C)O)C(C)C)C(C)C)C(C)C [FLPGLIKVAVGVGSTILCKITKKC]
MIC [29]: 6.3 µM (≈ 15.7 µg/mL) | MIC [30]: 3.1 µM (≈ 7.71 µg/mL) | MIC [31]: 3.1 µM (≈ 7.71 µg/mL) | MIC [32]: ≥ 50 µM | MIC [33]: 6.3 µM (≈ 15.7 µg/mL)

CC[C@H](C)[C@H](NC(=O)[C@H](CCCCN)NC(=O)[C@@H]1CCCN1C(=O)[C@H](CC(C)C)NC(=O)[C@H](CC(C)C)NC(=O)[C@@H](NC(=O)[C@H](CO)NC(=O)[C@H](CC(C)C)NC(=O)[C@H](C)NC(=O)CNC(=O)[C@H](Cc1ccccc1)NC(=O)[C@H](CC(C)C)NC(=O)[C@H](CC(C)C)NC(=O)[C@@H]1CCCN1C(=O)[C@H](CC(C)C)NC(=O)[C@@H](N)Cc1ccccc1)[C@@H](C)O)C(=O)N[C@@H](Cc1ccccc1)C(N)=O [FLPLLFGALSTLLPKIF]
MIC [30]: ≥ 50 µM | MIC [31]: 12.5 µM (≈ 23.6 µg/mL) | MIC [33]: 25 µM (≈ 47.2 µg/mL)

CC[C@H](C)[C@H](NC(=O)CNC(=O)[C@H](CCCN=C(N)N)NC(=O)[C@H](Cc1ccccc1)NC(=O)[C@@H](NC(=O)[C@H](Cc1cnc[nH]1)NC(=O)[C@H](Cc1cnc[nH]1)NC(=O)[C@H](Cc1c[nH]c2ccccc12)NC(=O)[C@@H](N)Cc1ccccc1)[C@@H](C)CC)C(=O)N[C@H](C(=O)N[C@@H](Cc1cnc[nH]1)C(=O)N[C@H](C(=O)NCC(=O)N[C@@H](CCCCN)C(=O)N[C@H](C(=O)N[C@H](C(=O)N[C@@H](Cc1cnc[nH]1)C(=O)N[C@@H](CCCN=C(N)N)C(=O)N[C@@H](CC(C)C)C(=O)N[C@H](C(=O)N[C@H](C(=O)NCC(=O)O)[C@@H](C)O)C(C)C)[C@@H](C)CC)[C@@H](C)O)C(C)C)C(C)C [FWHHIFRGIVHVGKTIHRLVTG]
MIC [13]: 2 µM (≈ 5.22 µg/mL) | MIC [14]: 2 µM (≈ 5.22 µg/mL) | MIC [15]: 2 µM (≈ 5.22 µg/mL) | MIC [16]: 2 µM (≈ 5.22 µg/mL) | MIC [17]: 2 µM (≈ 5.22 µg/mL) | MIC [18]: 2 µM (≈ 5.22 µg/mL) | MIC [19]: 4 µM (≈ 10.4 µg/mL) | MIC [20]: 4 µM (≈ 10.4 µg/mL) | MIC [21]: 4 µM (≈ 10.4 µg/mL) | MIC [22]: 2 µM (≈ 5.22 µg/mL) | MIC [23]: 2 µM (≈ 5.22 µg/mL) | MIC [24]: 2 µM (≈ 5.22 µg/mL) | MIC [25]: 2 µM (≈ 5.22 µg/mL) | MIC [26]: 2 µM (≈ 5.22 µg/mL)

CC(C)C[C@H](N)C(=O)N[C@H]1CSSC[C@@H](C(=O)N[C@H](C(N)=O)C(C)C)NC(=O)[C@H](C(C)C)NC(=O)[C@H](C)NC(=O)[C@H](Cc2ccccc2)NC(=O)[C@H](CCCN=C(N)N)NC(=O)[C@H](CCCN=C(N)N)NC(=O)[C@H](CCCN=C(N)N)NC(=O)[C@H](C)NC(=O)[C@H](Cc2ccc(O)cc2)NC1=O [LCYARRRFAVCV]
MIC [27]: 1.1 µM (≈ 1.6 µg/mL) | MIC [28]: 7.65 µM (≈ 11.1 µg/mL)

CC[C@H](C)[C@H](NC(=O)[C@H](CCCN=C(N)N)NC(=O)[C@H](CCCN=C(N)N)NC(=O)[C@@H]1CCCN1C(=O)[C@@H]1CCCN1C(=O)[C@H](CCCN=C(N)N)NC(=O)[C@@H]1CCCN1C(=O)[C@H](CCCN=C(N)N)NC(=O)[C@@H]1CCCN1C(=O)[C@H](CC(C)C)NC(=O)[C@H](Cc1ccc(O)cc1)NC(=O)[C@@H]1CCCN1C(=O)[C@@H]1CCCN1C(=O)[C@H](CCCCN)NC(=O)[C@H](CC(=O)O)NC(=O)[C@@H](N)C(C)C)C(=O)N[C@@H](Cc1ccc(O)cc1)C(=O)N[C@@H](CC(N)=O)C(=O)N[C@@H](CC(N)=O)C(N)=O [VDKPPYLPRPRPPRRIYNN]
MIC [1]: 6.81 µM (≈ 16 µg/mL) | MIC [2]: 27.2 µM (≈ 64 µg/mL)
